Measured values as given in US20080280862A1, “Methods, compositions, and kits for the treatment of pain” (priority 2007, published 2008).

Key:
TNFα = TNFα secretion by human white blood cells stimulated with PMA/ionomycin, synergy score; assay type: cell-based; set-up: key: S = Σ Idata(Idata−ILoewe) × ln dilution factors; volume over Loewe additivity; conditions: PBMC stimulated with PMA/Ionomycin
Method: A 100 μl suspension of diluted human white blood cells contained within each well of a polystyrene 384-well plate (NalgeNunc) was stimulated to secrete TNFα by treatment with a final concentration of 10 ng/mL phorbol 12-myristate 13-acetate (Sigma, P-1585) and 750 ng/mL ionomycin (Sigma, I-0634). Various concentrations of each test compound were added at the time of stimulation. After 16-18 hours of incubation at 37° C. in a humidified incubator, the plate was centrifuged and the supernatant transferred to a white opaque polystyrene 384-well plate (NalgeNunc, Maxisorb) coated with an anti-TNFα antibody (PharMingen, #551220). After a two-hour incubation, the plate was washed (Tecan PowerWasher 384) with PBS containing 0.1% Tween 20 and incubated for an additional one hour with another anti-TNFα antibody that was biotin labeled (PharMingen, #554511) and HRP coupled to strepavidin (PharMingen, #13047E). After the plate was washed with 0.1% Tween 20/PBS, an HRP-luminescent substrate was added to each well and light intensity measured using a LJL Analyst plate luminometer.
The synergy scores calculated for the various combinations of compounds set forth in Table 3 was calculated by the formula S=log fX log fYΣIdata(Idata−ILoewe), summed over all non-single-agent concentration pairs, and where log fX,Y are the natural logarithm of the dilution factors used for each single agent. This effectively calculates a volume between the measured and Loewe additive response surfaces, weighted towards high inhibition and corrected for varying dilution factors.

[1] = tested on: acetic acid-induced pain model in mice; assay: Acetic acid pain model, writhes; assay type: in vivo, ICR mice
Method: The acetic acid is a reliable fast model for noxious/visceral pain usually used for screening potential drug candidates for their analgesic activity. The effects of test article combinations on pain generation are assayed using the acetic acid-induced pain model in mice. Adult male ICR mice are administered study drugs intraperitoneally (vehicle, TCA, steroid or TCA/Steroid test article combinations) once daily for 2 days (day −2 and day −1) and 30 minutes prior to the acetic acid injection on day 0 (time=0). […] To elicit a pain response, dilute acetic acid (10 ml/kg of 0.6% solution) is injected intraperitoneally into the abdomen. The animal is placed in an observation chamber, and 5 minutes after acetic acid administration, the number of writhes is counted and recorded over a five minute period by a blinded observer. A writhe is considered as a contraction of the abdominal muscles accompanied by an elongation of the body and extension of the hind limb. Results are expressed as number of writhes.

[2] = combination with Hydrocortisone

Structure (SMILES) | Synergy Score based on TNF-α inhibition (TNFα; combination with Betamethasone) | Synergy Score based on TNF-α inhibition (TNFα; combination with Budesonide) | Synergy Score based on TNF-α inhibition (TNFα; combination with Dexamethasone) | Synergy Score based on TNF-α inhibition (TNFα; [2]) | Synergy Score based on TNF-α inhibition (TNFα; combination with Prednisolone) | Synergy Score based on TNF-α inhibition (TNFα; combination with Triamcinolone) | Mean # of writhes per 5 minutes ± SEM ([1]; 1 mg/kg ip) | Mean # of writhes per 5 minutes ± SEM ([1]; 5 mg/kg ip) | Mean # of writhes per 5 minutes ± SEM ([1]; 10 mg/kg ip) | Mean # of writhes per 5 minutes ± SEM ([1]; 15 mg/kg ip) | Mean # of writhes per 5 minutes ± SEM ([1]; 35 mg/kg ip) | Synergy Score based on TNF-α inhibition (TNFα; combination with Clobetasol) | Synergy Score based on TNF-α inhibition (TNFα; combination with Diflorasone) | Mean # of writhes per 5 minutes ± SEM ([1]; 3 mg/kg ip)
CNCCC=C1c2ccccc2CCc2ccccc21 [Nortriptyline] | 0.83 | 1.6 | 1.7 | 0.72 | 1.1 | 0.88 | 11.78 ± 3.44 | 7.79 ± 3.81 | 7.57 ± 2.53 | 2.07 ± 1.42 | – | – | – | –
C[C@]12C=CC(=O)C=C1CC[C@@H]1[C@@H]2[C@@H](O)C[C@@]2(C)[C@H]1CC[C@]2(O)C(=O)CO [Prednisolone] | – | – | – | – | – | – | 8.00 ± 1.70 | 14.43 ± 2.07 | 12.29 ± 3.83 | – | 11.29 ± 5.22 | – | – | –
CN(C)CCC=C1c2ccccc2CCc2ccccc21 [Amitriptyline] | 0.7 | 0.78 | 1.2 | 0.78 | 0.68 | 0.34 | 8.71 ± 2.44 | 4.50 ± 2.04 | 0.79 ± 0.79 | – | – | 0.75 | 0.59 | 11.62 ± 2.94
